Where two headings read alike, the source gives them in different places.
How the values were obtained:
Type in all cases: cell-based, human
[1] = tested on: MCF-7 cells; assay: cells; details: for fold lower viability to drug treatment as compared to control cells / fold more sensitive to drug: calumenin-depleted MCF-7 cells; for fold lower viability to drug treatment as compared to control cells: FIGS. 6C and 6D; for fold more sensitive to drug: FIGS. 6A and 6B; for IC50: Homo sapiens, MCF7; for IC50 / IC10: MCF-7 cells, determined from MTT experiments
Protocol: (§1) For a typical siRNA transfection, […] of the annealed siRNA duplex was mixed with 1.4 ml of Opti-MEM reagent (Invitrogen). In another tube, […] of Oligofectamine reagent (Invitrogen, Carlsbad, Calif.) was mixed with […] of Opti-MEM. The two solutions were combined and mixed gently by inversion and incubated for 20 min. at RT. The resulting solution was added to the cultured cells drop by drop in a 10 cm dish (cells are approximately 40-50% confluent). The next day the transfected cells were trypsinized and seeded in 6 or 96-well plates and further incubated for the indicated amount of time (assay dependent) before further analysis.
(§2) Cell survival was determined using the MTT cytotoxicity assay (see, e.g., Tokuyama et al. (2005) Anticancer Res. 25(1A): 17-22). Small interfering RNA transfected cells were seeded in triplicate into 96-well plates at 5×10^3 cells/well 48 hrs post-transfection. The cells were incubated for an additional 16 to 24 hrs before they were exposed to increasing concentrations of cytotoxic drugs. Doxorubicin (adriamycin), cisplatin, taxol, vinblastine, vincristine, and mitoxantrone were all purchased from Sigma Corp. (St. Louis, Mo.). Stocks were made as follows: 6 mM for doxorubicin, 1.1 mM for vincristine and vinblastine; 1.1 mM for taxol, 50 mM for cisplatin both in DMSO; and 0.97 mM mitoxantrone in ethanol. Appropriate dilutions were made in the respective media for each cell line. Following addition of drugs, incubation was continued for an additional 72 hrs. […] of MTT dye (5 mg/ml) were added into each well and the plate was further incubated at 37° C. for 4 hrs. The dye was solubilized with 10% Triton X-100, 0.01 N HCl and further incubated at 37° C. in the dark for 30 min. Cell viability was determined by measure of absorption at 570 nm in a Wallac multiwell plate reader (PerkinElmer, Inc., Boston, Mass.). The averages of triplicate wells were plotted using the Prism software (GraphPad Software, Inc., San Diego, Calif.).

[2] = tested on: MCF-7 cells; assay: cells; details: 72 hours post transfection
[3] = tested on: SKOV3 ovarian adenocarcinoma cell lines; assay: MTT cytotoxicity assay, calumenin-depleted SKOV3 cells; details: Table 3; calumenin-depleted SKOV3 vs mock siRNA-transfected cells
Protocol: as §1, §2

[4] = tested on: MDA breast adenocarcinoma cell line; assay: MTT cytotoxicity assay, calumenin-depleted MDA cells; details: Table 3; calumenin-depleted MDA vs mock siRNA-transfected cells; NC = no change occurred
Protocol: as §1, §2

[5] = tested on: MCF-7 cells; assay: Clonogenic assay, siRNA-transfected MCF-7 cells; details: FIG. 7; for cell survival, calumenin-directed siRNA and drug treatment as compared to drug treatment alone: MCF-7, IC10 and IC90 drug concentrations
Protocol: A clonogenic assay generated additional information concerning cell viability after drug-resistant cells were exposed to siRNA and chemotherapeutics. Briefly, transfected MCF-7 cells were seeded in triplicate into 24-well plates at 5×10^3 cells/well 48 hrs post-transfection. The cells were incubated for an additional 16-24 hrs before they were exposed to increasing concentrations of cytotoxic drugs. […] The cells were further incubated for an additional 7 days. At the end of the incubation, the cells were stained with addition of a 0.5% Methylene Blue solution in 50% ethanol for 15 min. at RT. The staining solution was then removed and plates were dried overnight. The plates were scanned and the stained colonies were solubilized in 0.1% SDS. The absorbance of the resulting solution was determined by spectrophotometry at 660 nm. […] The same results were found for cells treated with vincristine and calumenin-directed siRNA as compared to vincristine alone (FIG. 7).

[6] = Table 2, calumenin vs control transfected MCF7 cells
[7] = Table 3, calumenin-depleted MCF-7 vs mock siRNA-transfected cells
[8] = Homo sapiens, MCF7 cells transfected with calumenin-directed siRNA (table: vector expressing calumenin-encoding RNA), read-out: EC50, Calumenin
[9] = Homo sapiens, mock vector transfected MCF7 cells, read-out: EC50, Control
[10] = calumenin depleted MCF-7, IC50 drug treatment level

Row | Compound | IS: increased sensitivity to the particular drug [1, 6] [× IS] | IS: increased sensitivity to the particular drug [1, 7] [× IS] | fold lower viability to drug treatment as compared to control cells [1] [fold] | EC50 ([2]; MCF7 cells transfected with calumenin-directed siRNA (table: vector expressing calumenin-encoding RNA), read-out: EC50, Calumenin) [nM] | EC50 ([2]; mock vector transfected MCF7 cells, read-out: EC50, Control) [nM] | IS: increased sensitivity to the particular drug [3] [× IS] | EC50 [2, 8] [nM] | EC50 [2, 9] [nM] | fold more sensitive to drug [1] | IS: increased sensitivity to the particular drug [4] [× IS] | IC50 [1] [nM] | IC10 [1] [nM] | sensitivity of calumenin silenced MCF-7 cells to drug [5] | cell survival, calumenin-directed siRNA and drug treatment as compared to drug treatment alone [5] | more sensitive to drug than cells transfected with control siRNA [5, 10] [%] | more sensitive to drug than cells transfected with control siRNA ([5]; calumenin-directed siRNA transfected MCF-7, IC10 drug treatment level) [%] | more sensitive to drug than cells transfected with control siRNA ([5]; calumenin depleted MCF-7, IC90 drug treatment level) [%]
1 | N.N.[Cl][Pt][Cl] [Cisplatin] | 8.5 | 8.5 | 9 | 2240 | 19100 | 3.3 | – | – | – | – | – | – | – | – | – | – | –
2 | CC(=O)O[C@@]12CO[C@@H]1C[C@H](O)[C@@]1(C)C(=O)[C@H](O)C3=C(C)[C@@H](OC(=O)[C@H](O)[C@@H](NC(=O)OC(C)(C)C)c4ccccc4)C[C@@](O)([C@@H](OC(=O)c4ccccc4)[C@H]21)C3(C)C [Docetaxel] | 2.1 | – | – | – | – | – | 0.00463 | 0.00976 | – | – | – | – | – | – | – | – | –
3 | COc1cccc2c1C(=O)c1c(O)c3c(c(O)c1C2=O)C[C@@](O)(C(=O)CO)C[C@@H]3O[C@H]1C[C@H](N)[C@H](O)[C@H](C)O1 [Doxorubicin] | 1.8 | 1.8 | – | – | – | 1.6 | 27.4 | 50 | two | 2.4 | – | – | – | – | – | – | –
4 | COc1cc([C@@H]2c3cc4c(cc3[C@@H](O[C@@H]3O[C@@H]5CO[C@@H](C)O[C@H]5[C@H](O)[C@H]3O)[C@H]3COC(=O)[C@H]23)OCO4)cc(OC)c1O [Etoposide] | 1.3 | – | – | – | – | – | 957 | 1200 | – | – | – | – | – | – | – | – | –
5 | O=C1c2c(O)ccc(O)c2C(=O)c2c(NCCNCCO)ccc(NCCNCCO)c21 [Mitoxantrone] | 4.4 | 4.4 | – | – | – | 1.6 | 1.38 | 6.04 | four | 6 | – | – | – | – | – | – | –
6 | CC(=O)O[C@H]1C(=O)[C@@]2(C)[C@H]([C@H](OC(=O)c3ccccc3)[C@]3(O)C[C@H](OC(=O)[C@H](O)[C@@H](NC(=O)c4ccccc4)c4ccccc4)C(C)=C1C3(C)C)[C@]1(OC(C)=O)CO[C@@H]1C[C@@H]2O [Taxol] | 4130.2 | >10 | – | – | – | 2.1 | – | – | – | 3.8 | 100 | 1 | substantial increase | significantly decreased | 50 | 30 | –
7 | CC[C@]1(O)C[C@@H]2CN(CCc3c([nH]c4ccccc34)[C@@](C(=O)OC)(c3cc4c(cc3OC)N(C)[C@H]3[C@@](O)(C(=O)OC)[C@H](OC(C)=O)[C@]5(CC)C=CCN6CC[C@]43[C@@H]65)C2)C1 [Vinblastine] | 656.9 | – | – | – | – | – | – | 0.00149 | – | – | – | – | – | – | – | – | –
8 | CC[C@]1(O)C[C@H]2CN(CCc3c([nH]c4ccccc34)[C@@](C(=O)OC)(c3cc4c(cc3OC)N(C=O)[C@H]3[C@@](O)(C(=O)OC)[C@H](OC(C)=O)[C@]5(CC)C=CCN6CC[C@]43[C@@H]65)C2)C1 [Vincristine] | 17.2 | 17 | 17 | – | – | 4 | 0.00274 | 0.0471 | – | 3.8 | 0.25 | 5000 | substantial increase | same results | 20 | – | 33

From US20070243548A1, “Calumenin-directed diagnostics and therapeutics for cancer and chemotherapeutic drug resistance” (priority 2006, published 2007)
